Source: article PMC5218480 (PLoS ONE, 2017)

Test system: MV-4-11 cells
Assay: Gene expression microarray analysis (Affymetrix PrimeView) and GSEA
Format: cell-based, human
Design: RFU PODN (11730768_x_at) / Fold change /veh PODN (11730768_x_at) / RFU LINC00158 (11744669_a_at) / Fold change /veh LINC00158 (11744669_a_at) / RFU DUSP10 (11751237_a_at) / Fold change /veh DUSP10 (11751237_a_at) / RFU ID3 (11757404_x_at) / Fold change /veh ID3 (11757404_x_at) / RFU PLEKHG5 (11737974_s_at) / Fold change /veh PLEKHG5 (11737974_s_at) / RFU LRRC4B (11730491_at) / Fold change /veh LRRC4B (11730491_at) / RFU GIMAP4 (11747438_a_at) / Fold change /veh GIMAP4 (11747438_a_at) / RFU KRT8 (11758183_x_at) / Fold change /veh KRT8 (11758183_x_at) / RFU CNN1 (11734310_a_at) / Fold change /veh CNN1 (11734310_a_at) / RFU VPS37D (11726825_at) / Fold change /veh VPS37D (11726825_at) / RFU C10orf10 (11716522_x_at) / Fold change /veh C10orf10 (11716522_x_at) / RFU KIR2DL2 /// KIR2DL4 /// KIR2DL5A /// KIR2DL5B /// KIR2DS1 /// KIR2DS2 /// KIR2DS3 /// KIR2DS4 /// KIR3DL3 /// KIR3DL3 /// KIR3DS1 (11738374_at) / Fold change /veh KIR2DL2 /// KIR2DL4 /// KIR2DL5A /// KIR2DL5B /// KIR2DS1 /// KIR2DS2 /// KIR2DS3 /// KIR2DS4 /// KIR3DL3 /// KIR3DL3 /// KIR3DS1 (11738374_at) / RFU C1QL1 (11718748_at) / Fold change /veh C1QL1 (11718748_at) / RFU TMPRSS4 (11747572_a_at) / Fold change /veh TMPRSS4 (11747572_a_at) / RFU HAMP (11756126_x_at) / Fold change /veh HAMP (11756126_x_at) / RFU RNFT2 (11725882_a_at) / Fold change /veh RNFT2 (11725882_a_at) / RFU NR4A2 (11747474_a_at) / Fold change /veh NR4A2 (11747474_a_at) / RFU ABCC12 (11746883_a_at) / Fold change /veh ABCC12 (11746883_a_at) / RFU TMEM136 (11760407_x_at) / Fold change /veh TMEM136 (11760407_x_at) / RFU CLDN22 /// WWC2 (11732394_at) / Fold change /veh CLDN22 /// WWC2 (11732394_at) / RFU HLA-DPB1 (11760878_x_at) / Fold change /veh HLA-DPB1 (11760878_x_at) / RFU SPINT1 (11716480_a_at) / Fold change /veh SPINT1 (11716480_a_at) / RFU GAP43 (11754022_s_at) / Fold change /veh GAP43 (11754022_s_at) / RFU A4GNT (11735810_at) / Fold change /veh A4GNT (11735810_at) / RFU PRB3 (11715151_x_at) / Fold change /veh PRB3 (11715151_x_at) / RFU TUBB4B (11761932_at) / Fold change /veh TUBB4B (11761932_at) / RFU CAPN14 (11732068_a_at) / Fold change /veh CAPN14 (11732068_a_at) / RFU TMCC2 (11721928_a_at) / Fold change /veh TMCC2 (11721928_a_at) / RFU IRGQ (11745062_a_at) / Fold change /veh IRGQ (11745062_a_at) / RFU FAM174B (11720279_a_at) / Fold change /veh FAM174B (11720279_a_at) / RFU TMPRSS4 (11748680_a_at) / Fold change /veh TMPRSS4 (11748680_a_at) / RFU FAM212B (11763350_a_at) / Fold change /veh FAM212B (11763350_a_at) / RFU PLEKHG5 (11743358_a_at) / Fold change /veh PLEKHG5 (11743358_a_at) / RFU ZSCAN30 (11745921_a_at) / Fold change /veh ZSCAN30 (11745921_a_at) / RFU CMKLR1 (11741424_a_at) / Fold change /veh CMKLR1 (11741424_a_at) / RFU LOC101060620 /// MAPK8IP1 (11723275_at) / Fold change /veh LOC101060620 /// MAPK8IP1 (11723275_at) / RFU SPTSSB (11747773_x_at) / Fold change /veh SPTSSB (11747773_x_at) / RFU PRSS12 (11739890_at) / Fold change /veh PRSS12 (11739890_at) / RFU BIN1 (11741810_x_at) / Fold change /veh BIN1 (11741810_x_at) / RFU WNT11 (11732464_a_at) / Fold change /veh WNT11 (11732464_a_at) / RFU C10orf10 (11716521_a_at) / Fold change /veh C10orf10 (11716521_a_at) / RFU C5orf56 (11738089_at) / Fold change /veh C5orf56 (11738089_at) / RFU CYB561 (11721691_x_at) / Fold change /veh CYB561 (11721691_x_at) / RFU ANKRD19P (11752326_a_at) / Fold change /veh ANKRD19P (11752326_a_at) / RFU OR2T12 /// OR2T33 /// OR2T8 (11738714_s_at) / Fold change /veh OR2T12 /// OR2T33 /// OR2T8 (11738714_s_at) / RFU VCAN (11748164_a_at) / Fold change /veh VCAN (11748164_a_at) / RFU JSRP1 (11732532_at) / Fold change /veh JSRP1 (11732532_at) / RFU KRTAP10-11 (11738290_x_at) / Fold change /veh KRTAP10-11 (11738290_x_at) / RFU MYO3A (11730013_a_at) / Fold change /veh MYO3A (11730013_a_at) / RFU EBF3 (11725865_a_at) / Fold change /veh EBF3 (11725865_a_at) / RFU CAMK2N1 (11719241_x_at) / Fold change /veh CAMK2N1 (11719241_x_at) / RFU C5orf56 (11738088_a_at) / Fold change /veh C5orf56 (11738088_a_at) / RFU OLFML3 (11715873_a_at) / Fold change /veh OLFML3 (11715873_a_at) / RFU LOC100653217 /// NTM (11731650_a_at) / Fold change /veh LOC100653217 /// NTM (11731650_a_at) / RFU MAPK11 (11762145_a_at) / Fold change /veh MAPK11 (11762145_a_at) / RFU FIZ1 (11724087_x_at) / Fold change /veh FIZ1 (11724087_x_at) / RFU OASL (11726364_x_at) / Fold change /veh OASL (11726364_x_at) / RFU SOX15 (11748057_x_at) / Fold change /veh SOX15 (11748057_x_at) / RFU CD79A (11719716_a_at) / Fold change /veh CD79A (11719716_a_at) / RFU HIST1H1D (11736915_at) / Fold change /veh HIST1H1D (11736915_at) / RFU CASKIN2 (11723855_a_at) / Fold change /veh CASKIN2 (11723855_a_at) / RFU LOC730098 (11760151_x_at) / Fold change /veh LOC730098 (11760151_x_at) / RFU OR4N2 (11742367_at) / Fold change /veh OR4N2 (11742367_at) / RFU PRRT2 (11749266_a_at) / Fold change /veh PRRT2 (11749266_a_at) / RFU SNX32 (11753110_a_at) / Fold change /veh SNX32 (11753110_a_at) / RFU CDHR5 (11726645_a_at) / Fold change /veh CDHR5 (11726645_a_at) / RFU RCAN1 (11760418_a_at) / Fold change /veh RCAN1 (11760418_a_at) / RFU FAM167A (11723789_a_at) / Fold change /veh FAM167A (11723789_a_at) / RFU FAM26E (11764081_at) / Fold change /veh FAM26E (11764081_at) / RFU ISYNA1 (11749810_s_at) / Fold change /veh ISYNA1 (11749810_s_at) / RFU ACY1 (11761880_at) / Fold change /veh ACY1 (11761880_at) / RFU 11764098_at / Fold change /veh 11764098_at / RFU SAMD14 (11745864_x_at) / Fold change /veh SAMD14 (11745864_x_at) / RFU NPB (11741838_a_at) / Fold change /veh NPB (11741838_a_at) / RFU TMPRSS6 (11731388_a_at) / Fold change /veh TMPRSS6 (11731388_a_at) / RFU KRTAP10-2 (11738614_at) / Fold change /veh KRTAP10-2 (11738614_at) / RFU ARHGAP8 /// PRR5-ARHGAP8 (11727945_x_at) / Fold change /veh ARHGAP8 /// PRR5-ARHGAP8 (11727945_x_at) / RFU KRTAP5-7 /// NADSYN1 (11734609_at) / Fold change /veh KRTAP5-7 /// NADSYN1 (11734609_at) / RFU RASL12 (11751679_a_at) / Fold change /veh RASL12 (11751679_a_at) / RFU CDKN2B (11736163_a_at) / Fold change /veh CDKN2B (11736163_a_at) / RFU PRF1 (11729649_at) / Fold change /veh PRF1 (11729649_at) / RFU, ZNF638 /// ZNF638-IT1 / Fold change vs veh, ZNF638 /// ZNF638-IT1 / RFU, PANK3 / Fold change vs veh, PANK3 / RFU, SH3YL1 / Fold change vs veh, SH3YL1 / RFU, ZEB2 / Fold change vs veh, ZEB2 / RFU, NRIP1 / Fold change vs veh, NRIP1 / RFU, PTTG1IP / Fold change vs veh, PTTG1IP / RFU, CAPN2 / Fold change vs veh, CAPN2 / RFU, MED14 / Fold change vs veh, MED14 / RFU, SNORA58 / Fold change vs veh, SNORA58 / RFU, C1orf63 / Fold change vs veh, C1orf63 / RFU, LRRFIP1 / Fold change vs veh, LRRFIP1 / RFU, NDUFAF7 / Fold change vs veh, NDUFAF7 / RFU, SLC12A2 / Fold change vs veh, SLC12A2 / RFU, IBTK / Fold change vs veh, IBTK / RFU, ESF1 / Fold change vs veh, ESF1 / Fold change vs veh, TMEM50B / RFU, TAOK1 / Fold change vs veh, TAOK1 / RFU, ACBD3 / Fold change vs veh, ACBD3 / RFU, TMA16 / Fold change vs veh, TMA16 / RFU, RWDD3 / Fold change vs veh, RWDD3 / RFU, BCAT1 / Fold change vs veh, BCAT1 / RFU, EDEM3 / Fold change vs veh, EDEM3 / RFU, TMEM33 / Fold change vs veh, TMEM33 / RFU, WDR75 / Fold change vs veh, WDR75 / RFU, AHCTF1 / Fold change vs veh, AHCTF1 / RFU, TFRC / Fold change vs veh, TFRC / RFU, ZDHHC17 / Fold change vs veh, ZDHHC17 / RFU, NOM1 / Fold change vs veh, NOM1 / RFU, ARL8B / Fold change vs veh, ARL8B / RFU, ZBTB11 / Fold change vs veh, ZBTB11 / RFU, TAMM41 / Fold change vs veh, TAMM41 / RFU, KIAA1704 /// LOC100996395 / Fold change vs veh, KIAA1704 /// LOC100996395 / RFU, ING1 / Fold change vs veh, ING1 / RFU, TRMT61B / Fold change vs veh, TRMT61B / RFU, FUBP3 / Fold change vs veh, FUBP3 / RFU, TP53 / Fold change vs veh, TP53 / RFU, TNKS2 / Fold change vs veh, TNKS2 / RFU, ZFP14 / Fold change vs veh, ZFP14 / RFU, ACTR2 / Fold change vs veh, ACTR2 / RFU, PPP3R1 / Fold change vs veh, PPP3R1 / RFU, PIK3R1 / Fold change vs veh, PIK3R1 / RFU, HNRNPA1 / Fold change vs veh, HNRNPA1 / RFU, RNF170 / Fold change vs veh, RNF170 / RFU, ZNF28 / Fold change vs veh, ZNF28 / RFU, RNGTT / Fold change vs veh, RNGTT / RFU, OGT / Fold change vs veh, OGT / RFU, BRD1 / Fold change vs veh, BRD1 / RFU, MARS / Fold change vs veh, MARS / RFU, ZNF655 / Fold change vs veh, ZNF655 / RFU, FAHD1 / Fold change vs veh, FAHD1 / RFU, BDP1 / Fold change vs veh, BDP1 / RFU, LRRCC1 / Fold change vs veh, LRRCC1 / RFU, ARID1A / Fold change vs veh, ARID1A / RFU, ZNF146 / Fold change vs veh, ZNF146 / RFU, ZNF330 / Fold change vs veh, ZNF330 / RFU, GPN3 / Fold change vs veh, GPN3 / RFU, C9orf123 / Fold change vs veh, C9orf123 / RFU, N4BP2L2 / Fold change vs veh, N4BP2L2 / RFU, ARFIP1 / Fold change vs veh, ARFIP1 / RFU, FAM179B / Fold change vs veh, FAM179B / RFU, BCL10 / Fold change vs veh, BCL10 / RFU, UHRF1BP1L / Fold change vs veh, UHRF1BP1L / RFU, BET1 / Fold change vs veh, BET1 / RFU, CNOT2 / Fold change vs veh, CNOT2 / RFU, ZNF268 / Fold change vs veh, ZNF268 / Fold change vs veh, ZNF507 / RFU, DGCR2 / Fold change vs veh, DGCR2 / RFU, WDSUB1 / Fold change vs veh, WDSUB1 / Fold change vs veh, HSP90B1 /// MIR3652 / RFU, ADSS / Fold change vs veh, ADSS / RFU, GK / Fold change vs veh, GK / RFU, ZNF148 / Fold change vs veh, ZNF148 / RFU, TAF9 / Fold change vs veh, TAF9 / RFU, SLC1A5 / Fold change vs veh, SLC1A5 / RFU, SLMO2 / Fold change vs veh, SLMO2 / RFU, ABCC4 / Fold change vs veh, ABCC4 / RFU, LOC101060439 /// RAP1B / Fold change vs veh, LOC101060439 /// RAP1B / RFU, RFX7 / Fold change vs veh, RFX7 / RFU, GTPBP10 / Fold change vs veh, GTPBP10 / RFU, CNEP1R1 / Fold change vs veh, CNEP1R1 / RFU, BIVM-ERCC5 /// ERCC5 / Fold change vs veh, BIVM-ERCC5 /// ERCC5 / RFU, ILF3 / Fold change vs veh, ILF3 / RFU 11762660_at / Fold change /veh 11762660_at / RFU VCAN (11757783_s_at) / Fold change /veh VCAN (11757783_s_at) / RFU DDX43 (11728927_at) / Fold change /veh DDX43 (11728927_at) / RFU KRT8 (11758188_x_at) / Fold change /veh KRT8 (11758188_x_at) / RFU NKD1 (11759106_at) / Fold change /veh NKD1 (11759106_at) / RFU SRD5A1 (11742802_a_at) / Fold change /veh SRD5A1 (11742802_a_at) / RFU TPSAB1 /// TPSB2 (11721975_s_at) / Fold change /veh TPSAB1 /// TPSB2 (11721975_s_at) / RFU GSTM3 (11746129_a_at) / Fold change /veh GSTM3 (11746129_a_at) / RFU IL23R (11737362_x_at) / Fold change /veh IL23R (11737362_x_at) / RFU TMEM51 (11727254_a_at) / Fold change /veh TMEM51 (11727254_a_at) / RFU PIWIL2 (11732686_x_at) / Fold change /veh PIWIL2 (11732686_x_at) / RFU ORM1 (11744905_x_at) / Fold change /veh ORM1 (11744905_x_at) / RFU CCDC152 (11743942_at) / Fold change /veh CCDC152 (11743942_at) / RFU ECM1 (11717891_a_at) / Fold change /veh ECM1 (11717891_a_at) / RFU IL23R (11748794_a_at) / Fold change /veh IL23R (11748794_a_at) / RFU TNFAIP8L3 (11732012_x_at) / Fold change /veh TNFAIP8L3 (11732012_x_at) / RFU MBOAT4 (11741988_at) / Fold change /veh MBOAT4 (11741988_at) / RFU 11764193_at / Fold change /veh 11764193_at / RFU TMEM53 (11763286_at) / Fold change /veh TMEM53 (11763286_at) / RFU MAGEB2 (11727129_at) / Fold change /veh MAGEB2 (11727129_at) / RFU TMEM200A (11744735_a_at) / Fold change /veh TMEM200A (11744735_a_at) / RFU CCDC152 (11751479_a_at) / Fold change /veh CCDC152 (11751479_a_at) / RFU FAM211A (11726209_a_at) / Fold change /veh FAM211A (11726209_a_at) / RFU RGS16 (11746705_a_at) / Fold change /veh RGS16 (11746705_a_at) / RFU VCAN (11755009_s_at) / Fold change /veh VCAN (11755009_s_at) / RFU RHOB (11743442_s_at) / Fold change /veh RHOB (11743442_s_at) / RFU RGS16 (11720943_a_at) / Fold change /veh RGS16 (11720943_a_at) / RFU RGS16 (11720944_at) / Fold change /veh RGS16 (11720944_at) / RFU, VPS4B / Fold change vs veh, VPS4B / RFU, CREB1 / Fold change vs veh, CREB1 / RFU, DNAJC13 / Fold change vs veh, DNAJC13 / RFU, GNAQ / Fold change vs veh, GNAQ / RFU, CDK5R1 / Fold change vs veh, CDK5R1 / RFU, ZRANB3 / Fold change vs veh, ZRANB3 / RFU, CUL4A / Fold change vs veh, CUL4A / RFU, CCNY / Fold change vs veh, CCNY / RFU, UFL1 / Fold change vs veh, UFL1 / RFU, COG3 / Fold change vs veh, COG3 / RFU, DIAPH2 / Fold change vs veh, DIAPH2 / RFU, SKA2 / Fold change vs veh, SKA2 / RFU, AFF3 / Fold change vs veh, AFF3 / RFU, LMF1 / Fold change vs veh, LMF1 / RFU, IPO11 / Fold change vs veh, IPO11 / RFU, DFFB / Fold change vs veh, DFFB / RFU, FOXP1 / Fold change vs veh, FOXP1 / RFU, CARD8 / Fold change vs veh, CARD8 / RFU, STRN3 / Fold change vs veh, STRN3 / RFU, ADK / Fold change vs veh, ADK / RFU, RASSF2 / Fold change vs veh, RASSF2 / RFU, WIPF1 / Fold change vs veh, WIPF1 / RFU, LARP1B / Fold change vs veh, LARP1B / RFU, RASA1 / Fold change vs veh, RASA1 / RFU, RB1 / Fold change vs veh, RB1 / RFU, PPFIA1 / Fold change vs veh, PPFIA1 / RFU, MAT2A / Fold change vs veh, MAT2A / RFU, CCT5 / Fold change vs veh, CCT5 / RFU, WDR92 / Fold change vs veh, WDR92 / RFU, CUX1 / Fold change vs veh, CUX1 / RFU, TTC7A / Fold change vs veh, TTC7A / RFU, TMEM135 / Fold change vs veh, TMEM135 / RFU, DEPTOR / Fold change vs veh, DEPTOR / RFU, CPM / Fold change vs veh, CPM / RFU, DNAJB6 / Fold change vs veh, DNAJB6 / RFU, CACNA2D3 / Fold change vs veh, CACNA2D3 / RFU, DTX4 / Fold change vs veh, DTX4 / RFU, TFCP2 / Fold change vs veh, TFCP2 / RFU, GMCL1 /// GMCL1P1 / Fold change vs veh, GMCL1 /// GMCL1P1 / RFU, AEBP2 / Fold change vs veh, AEBP2 / RFU, SNHG1 /// SNORD22 /// SNORD25 /// SNORD26 /// SNORD27 /// SNORD28 /// SNORD29 /// SNORD31 / Fold change vs veh, SNHG1 /// SNORD22 /// SNORD25 /// SNORD26 /// SNORD27 /// SNORD28 /// SNORD29 /// SNORD31 / Fold change (Aza/veh), C12orf56 (ProbeSet 11735607_a_at) / Fold change (ACY-1035/veh), C12orf56 (ProbeSet 11735607_a_at) / Fold change (Aza/veh), FGFR1OP (ProbeSet 11751329_s_at) / Fold change (ACY-1035/veh), FGFR1OP (ProbeSet 11751329_s_at) / Fold change (Aza/veh), VPS36 (ProbeSet 11739960_a_at) / Fold change (ACY-1035/veh), VPS36 (ProbeSet 11739960_a_at) / RFU SYPL1 (11715823_x_at) / Fold change /veh SYPL1 (11715823_x_at) / RFU IGFBP7 (11715501_s_at) / Fold change /veh IGFBP7 (11715501_s_at) / RFU REEP3 (11722064_at) / Fold change /veh REEP3 (11722064_at) / RFU IGLL1 (11728026_x_at) / Fold change /veh IGLL1 (11728026_x_at): dose or concentration left out as unconfirmed
Conditions: ProbeSet 11734782_x_at; LIST D

Nc1ncn([C@@H]2O[C@H](CO)[C@@H](O)[C@H]2O)c(=O)n1 [azacitidine]
RFU, WDR92: 49.30 RFU
